Marks after values point to notes of the source that are not given here.
Key:
[1] = test system: atherosclerotic lesions in apoE−/− mice; test: Atherosclerotic lesion cross-section areas at four aortic sites (morphometry); assay type: in vivo
Method: Male C57BL/6J mice, homozygous for the disrupted apoE gene (apoE−/−) were fed standard chow (Lab-Feed, Sydney, Australia) until aged 10 weeks. […] The high fat diet (control and probucol-supplemented) was prepared, according to the specifications of the Harlan Teklad diet TD88137. […]
Lesions were assessed at four different sites along the aorta, in the aortic root, in the aortic arch, the descending thoracic and in the proximal abdominal aorta, and cross-sections (2-3 μm thick) were prepared and stained with Weigert's hematoxylin-van Gieson.

[2] = test system: plasma lipids obtained from apoE−/− mice; test: Ex vivo oxidizability of plasma lipids (aqueous peroxyl radical generator); assay type: in vivo; settings: pooled plasma of probucol-treated apoE−/− mice, 5 mM MPH, 37° C.
Method: Pooled plasma obtained from control (open symbols) or probucol-treated (closed symbols) mice was exposed to 5 mM of the aqueous peroxyl radical generator MPH and incubated under air at 37° C. […] Data shown are mean±SD of a single oxidation experiment performed in triplicate using pooled plasma. Where error bars are not shown, error is smaller than the symbol.
Plasma was obtained from control and probucol mice and aliquots frozen for subsequent determination of lipids. Separate aliquots were acidified with metaphosphoric acid (5%) to stabilize vitamin C prior to freezing and storage at −80° C. The remainder was pooled appropriately and used for ex vivo oxidation initiated by the peroxyl radical generator AAPH and lipoprotein separation by FPLC with UV280nm detection, as described in J Lipid Res. 1999;40:1104-1112.
Enhanced resistance of plasma lipoproteins to oxidation is often used as a measure of antioxidant efficacy. Therefore, we examined MPH-induced oxidation of pooled plasma from control and treated animals. […] These observations can be explained readily on the basis of tocopherol-mediated peroxidation.

[3] = test system: cholesterol-fed, ballooned New Zealand White rabbits; test: Atherosclerosis/restenosis and lipid oxidation in cholesterol-fed, ballooned rabbits; assay type: in vivo; settings: 2% cholesterol diet with 1% probucol, 6 weeks
Method: Aortic endothelial denudation was performed at week 3 by withdrawing an inflated 3F Fogarty balloon embolectomy catheter three times down the length of the aorta. Plasma was obtained from animals as described in Example 1 at the start and end of the study. At the end of the study period, individual aortas were removed and prepared for HPLC analysis as in Example 1. Lipids and antioxidants including probucol and its metabolites, bisphenol and diphenoquinone, were analyzed by RP-HPLC as described previously. Aortas designated for histology were perfusion-fixed with 4% (v/v) formaldehyde and transferred into formalin. Cross-sections (2-3 μm thick) were prepared and stained with Weigert's hematoxylin-van Gieson, and the intima to media ratio determined for three sections.

[4] = test system: ballooned New Zealand White rabbits; test: Re-endothelialization in cholesterol-fed and normal chow fed ballooned rabbits; assay type: in vivo
Description: Results are from two separate experiments and represent mean±SD of six (cholesterol diet) and five animals (normal diet) per group. Asterisk indicates statistically significant higher values compared with corresponding controls, with p-values of 0.002, 0.015 and 0.025 for *, ** and * respectively.

apoE−/−;LDLr−/− mice = test: Plasma lipid and vitamin E levels; assay type: in vivo; settings: chow with 0.03% bisphenol, 14 weeks
Method: Male apoE−/−;LDLr−/− mice (59 total), were maintained on standard R3 chow from weaning to 8 weeks of age (young controls, n=9). Thereafter mice received R3 chow with (n=25) or without supplemented bisphenol (n=25) for an additional 14 weeks. Standard R3-mouse chow was fortified with bisphenol at 0.03% (w/w), a level of supplementation shown in pilot experiments to afford circulating concentrations of the drug of ˜200 μM, considered suitable to test the effect of the co-antioxidant on atherogenesis in this animal model. At 22 weeks of age 10 and 15 mice of each group were used for biochemical and histological analyses, respectively. […]
Analyses of oxidised and non-oxidised lipids were carried out by RP-HPLC as described in Example 1 except that in some instances UV234 nm rather than post-column chemiluminescence detection was used to measure C18:2-OOH and the corresponding hydroxides (together referred to as CE-O(O)H) which show similar retention times under these chromatographic conditions. α-TQ, α-TOH, α-tocotrienol, D-isosascorbate and ascorbate were determined by HPLC with electrochemical detection. For oxidation of plasma, unesterified cholesterol (which remained non-oxidised in these experiments) was employed as internal standard for all polyunsaturated, lipid-soluble components analysed. […] All compounds were quantified by peak area comparison with authentic standards. […]

[5] = test system: plasma from apoE−/−;LDLr−/− mice; test: Ex vivo plasma lipid peroxidation initiated by aqueous peroxyl radicals (AAPH); assay type: in vivo
Method: Pooled plasma obtained from at least 3 mice receiving control diet (circles) or diet supplemented with bisphenol (squares) were treated with 5 mM AAPH and incubated at 37° C. At the times indicted aliquots were removed and analysed for α-TOH (A) and CE-O(O)H (B). 100% α-TOH levels correspond to 28±3 and 20±2 μM for control and H 212/43 plasma, respectively. Data represents the mean±SD (n=4 independent experiments).
Oxidation of plasma, pooled from=3 mice was carried out by addition of the peroxyl radical generator (final concentrations 5 mM) and incubating the reaction mixture at 37° C. under air. Aliquots (50 μL) of the reaction mixture were removed, extracted in methanol/hexane (1:5, v/v), and the consumption of antioxidants and accumulation of lipid oxidation products determined.

α-tocopheroxyl radical = test: Tocopheroxyl radical attenuating ability (TRAA); assay type: biochemical; settings: kobs with (+) or without (−) test compound
[6] = apoE−/− mice, 1% probucol, 24 weeks
[7] = 2% Cholesterol-fed ballooned rabbits
[8] = Normal Chow fed ballooned rabbits
[9] = pooled plasma of bisphenol-treated mice, 5 mM AAPH, 37° C., 12 h

## CC(C)(Sc1cc(C(C)(C)C)c(O)c(C(C)(C)C)c1)Sc1cc(C(C)(C)C)c(O)c(C(C)(C)C)c1 [Probucol, probucol]
[1]; [6]
  lesion formation at the abdominal aorta: effectively prevented lesion formation
  lesions in the aortic arch and descending thoracic aorta vs control: significantly smaller
[1]; apoE−/− mice, high fat diet with 1% (w/w) probucol, 24 weeks, aortic root
  lesion cross-section area, Aortic Root: 1180 μm^2 × 10^−3
[1]; apoE−/− mice, high fat diet with 1% probucol, 24 weeks, abdominal aorta
  lesion cross-section area, Abdominal Aorta: 12 ± 12(3) μm^2 × 10^−3
[1]; apoE−/− mice, high fat diet with 1% probucol, 24 weeks, aortic arch
  lesion cross-section area, Arch: 140 ± 34 μm^2 × 10^−3
[1]; apoE−/− mice, high fat diet with 1% probucol, 24 weeks, descending thoracic aorta
  lesion cross-section area, Descending Thoracic Aorta: *5 ± 4 (8)* μm^2 × 10^−3
[1]; probucol vs controls, abdominal aorta
  Treatment effect on lesion area, Abdominal Aorta: 10%
[1]; probucol vs controls, aortic arch
  Treatment effect on lesion area, Arch: 44%
[1]; probucol vs controls, aortic root
  Treatment effect on lesion area, Aortic Root: 146%
[1]; probucol vs controls, descending thoracic aorta
  Treatment effect on lesion area, Descending Thoracic Aorta: 15%
[2]
  fate of the compound present in plasma during the oxidation period: remained unchanged
[2]; air
  onset and initial rate of CE-O(O)H accumulation vs control plasma: delayed and decreased
[3]
  content of plasma and aortic lipids and absolute amounts of oxidized lipids: significantly decreased
  proportion of aortic lipids that was oxidized: not affected
[3]; aortic denudation at week 3
  effect on atherosclerosis: significantly decreased
[4]; [7]
  Re-endothelialized area, Abdominal Aorta: 55.1 ± 7.1** % total surface area
  Re-endothelialized area, Thoracic Aorta: 57.3 ± 5.1* % total surface area
[4]; [8]
  Re-endothelialized area, Abdominal Aorta: 48.2 ± 9.0*** % total surface area
  Re-endothelialized area, Thoracic Aorta: 50.4 ± 6.4** % total surface area

## CC(C)(C)c1cc(-c2cc(C(C)(C)C)c(O)c(C(C)(C)C)c2)cc(C(C)(C)C)c1O [Bisphenol, bisphenol]
[2]
  fate of the compound present in plasma during the oxidation period: oxidised into diphenoquinone
apoE−/−;LDLr−/− mice
  Plasma Triglycerides: 6.3 (0.5) mm
[5]; [9]
  CE-OOH detected after 12 h of ex vivo oxidation: < 1 µM
  α-TOH after 12 h of ex vivo oxidation: remained unaltered
[5]; pooled plasma of mice receiving bisphenol diet
  100% α-TOH level of plasma before oxidation: 20 ± 2 µM
α-tocopheroxyl radical
  TRAA (decay of tocopheroxyl radical; kobs(+)/kobs(−)): Immediate decay

From US20020115728A1, “Compositions and methods for treating cardiovascular disorders” (priority 2000, published 2002)
